Measured values reported in patent US6737383B1, “Herbicidal oxadiazolidines” (priority 1999, dated 2004).

Legend:
bedstraw = assay: Test B pre/postemergence bedstraw; format: in vivo, Galium aparine; conditions: Postemergence
In short: (§1)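 Response is a visual 0-to-10 score relative to untreated plants, where 0 means no effect and 10 means complete control, taken twelve to sixteen days after application. Treatments went onto soil at planting and onto foliage of 1- to 4-leaf plants, using a surfactant-containing non-phytotoxic solvent.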

blackgrass = assay: Test B pre/postemergence blackgrass; format: in vivo, Alopecurus myosuroides
In short: as §1

surinam grass = assay: Test B pre/postemergence surinam grass; format: in vivo, Brachiaria decumbens
In short: as §1

cocklebur = assay: Test B pre/postemergence cocklebur; format: in vivo, Xanthium strumarium
In short: as §1

corn = assay: Test B pre/postemergence corn; format: in vivo, Zea mays
In short: as §1

crabgrass = assay: Test B pre/postemergence crabgrass; format: in vivo, Digitaria sanguinalis
In short: as §1

giant foxtail = assay: Test B pre/postemergence giant foxtail; format: in vivo, Setaria faberii
In short: as §1

morningglory = assay: Test B pre/postemergence morningglory; format: in vivo, Ipomoea hederacea
In short: as §1

pigweed = assay: Test B pre/postemergence pigweed; format: in vivo, Amaranthus retroflexus
In short: as §1

rape = assay: Test B pre/postemergence rape; format: in vivo, Brassica napus
In short: as §1

soybean = assay: Test B pre/postemergence soybean; format: in vivo, Glycine max
In short: as §1

sugar beet = assay: Test B pre/postemergence sugar beet; format: in vivo, Beta vulgaris
In short: as §1

velvetleaf = assay: Test B pre/postemergence velvetleaf; format: in vivo, Abutilon theophrasti
In short: as §1

wheat = assay: Test B pre/postemergence wheat; format: in vivo, Triticum aestivum
In short: as §1

wild oat = assay: Test B pre/postemergence wild oat; format: in vivo, Avena fatua
In short: as §1

purple nutsedge = assay: Test B pre/postemergence purple nutsedge; format: in vivo, Cyperus rotundus
In short: as §1

rice = assay: Test B flood test rice; format: in vivo, Oryza sativa; conditions: flood test species
In short: (§2)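 Plants were grown to the 2-leaf stage before treatment with test chemical, then held in a greenhouse for twelve to sixteen days. Injury was visually rated against untreated controls on a 0–10 scale, where 0 is no effect and 10 is complete control.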

smallflower flatsedge = assay: Test B flood test smallflower flatsedge; format: in vivo, Cyperus difformis; conditions: flood test species
In short: as §2

duck salad = assay: Test B flood test duck salad; format: in vivo, Heteranthera limosa; conditions: flood test species
In short: as §2

bamyardgrass = assay: Test B flood test barnyardgrass; format: in vivo, Echinochloa crus-galli; conditions: flood test species
In short: as §2

[1] = Postemergence, Rate 125 g/ha, scale 0 to 10, 0 is no effect, 10 is complete control
[2] = Postemergence, Rate 250 g/ha, scale 0 to 10
[3] = Postemergence, Rate 500 g/ha, scale 0 to 10, 0 is no effect, 10 is complete control
[4] = Preemergence, Rate 62 g/ha, scale of 0 to 10 where 0 is no effect and 10 is complete control
[5] = Preemergence, Rate 125 g/ha, scale 0 to 10, 0 is no effect, 10 is complete control
[6] = Preemergence, Rate 250 g/ha, scale 0 to 10, 0 is no effect, 10 is complete control
[7] = Preemergence, Rate 500 g/ha, scale 0 to 10, 0 is no effect, 10 is complete control
[8] = Rate 62 g/ha, Postemergence, scale 0 to 10 (0 no effect, 10 complete control)
[9] = Rate 62 g/ha, Pre-emergence, visual evaluation after twelve to sixteen days
[10] = Rate 125 g/ha, under heading Pre-emergence, visual evaluation after twelve to sixteen days
[11] = Rate 500 g/ha, Pre-emergence, scale 0 to 10 (0 no effect, 10 complete control)

For CC(C)C(=O)Cn1c(=O)on(C(=O)N(c2ccccc2)C(C)C)c1=O [Compound 485], the “Bedstraw plant response rating” value (bedstraw; Rate 125 g/ha, scale 0 to 10, 0 is no effect, 10 is complete control) was 0, the “Bedstraw plant response rating” value (bedstraw; Rate 250 g/ha, scale 0 to 10) was 2 and the “Plant response rating, Bedstraw” value (bedstraw; Rate 500 g/ha, scale 0 to 10, 0 is no effect, 10 is complete control) was 6. The “Bedstraw plant response rating” value (bedstraw; Rate 62 g/ha, scale 0 to 10 (0 no effect, 10 complete control)) was 0, the “Blackgrass plant response rating” value (blackgrass; [1]) was 7 and the “Blackgrass plant response rating” value (blackgrass; [2]) was 7. The “Plant response rating, Blackgrass” value (blackgrass; [3]) was 8, the “Plant response rating, Blackgrass” value (blackgrass; [4]) was 4 and the “Blackgrass plant response rating” value (blackgrass; [5]) was 8. For the same compound, the “Blackgrass plant response rating” value (blackgrass; [6]) was 8, the “Blackgrass plant response rating” value (blackgrass; [7]) was 9 and the “Blackgrass plant response rating” value (blackgrass; [8]) was 3. The “B. signalgrass plant response rating” value (surinam grass; [1]) was 0, the “B. signalgrass plant response rating” value (surinam grass; Postemergence, Rate 250 g/ha, scale 0 to 10, 0 no effect, 10 complete control) was 4 and the “Plant response rating, B. signalgrass” value (surinam grass; [3]) was 5. For the same compound, the “Plant response rating, B. signalgrass” value (surinam grass; [4]) was 3, the “B. signalgrass plant response rating” value (surinam grass; [5]) was 5 and the “B. signalgrass plant response rating” value (surinam grass; [6]) was 8. The “B. signalgrass plant response rating” value (surinam grass; [7]) was 8, the “B. signalgrass plant response rating” value (surinam grass; [8]) was 0 and the “Cocklebur plant response rating” value (cocklebur; [1]) was 0. The “Cocklebur plant response rating” value (cocklebur; [2]) was 0, the “Plant response rating, Cocklebur” value (cocklebur; [3]) was 0 and the “Plant response rating, Cocklebur” value (cocklebur; [4]) was 0. The “Cocklebur plant response rating” value (cocklebur; [5]) was 0, the “Cocklebur plant response rating” value (cocklebur; [6]) was 0 and the “Cocklebur plant response rating” value (cocklebur; [7]) was 0. The “Cocklebur plant response rating” value (cocklebur; [8]) was 0, the “Corn plant response rating” value (corn; [1]) was 0 and the “Corn plant response rating” value (corn; [2]) was 0. For the same compound, the “Plant response rating, Corn” value (corn; [3]) was 0, the “Plant response rating, Corn” value (corn; [4]) was 0 and the “Corn plant response rating” value (corn; [5]) was 0. For the same compound, the “Corn plant response rating” value (corn; [6]) was 0, the “Corn plant response rating” value (corn; [7]) was 7 and the “Corn plant response rating” value (corn; [8]) was 0. For the same compound, the “Crabgrass plant response rating” value (crabgrass; [1]) was 6, the “Crabgrass plant response rating” value (crabgrass; [2]) was 7 and the “Plant response rating, Crabgrass” value (crabgrass; [3]) was 8. The “Plant response rating, Crabgrass” value (crabgrass; [4]) was 6, the “Crabgrass plant response rating” value (crabgrass; [5]) was 7 and the “Crabgrass plant response rating” value (crabgrass; [6]) was 10. The “Crabgrass plant response rating” value (crabgrass; [7]) was 10, the “Crabgrass plant response rating” value (crabgrass; [8]) was 3 and the “Giant foxtail plant response rating” value (giant foxtail; [1]) was 7. For the same compound, the “Plant response rating, Giant foxtail” value (giant foxtail; [3]) was 8, the “Plant response rating, Giant foxtail” value (giant foxtail; [4]) was 7 and the “Giant foxtail plant response rating” value (giant foxtail; [5]) was 8. The “Giant foxtail plant response rating” value (giant foxtail; [6]) was 10, the “Giant foxtail plant response rating” value (giant foxtail; [7]) was 10 and the “Giant foxtail plant response rating” value (giant foxtail; [8]) was 5. For the same compound, the “Morningglory plant response rating” value (morningglory; [1]) was 10, the “Plant response rating, Morningglory” value (morningglory; [3]) was 10 and the “Plant response rating, Morningglory” value (morningglory; [4]) was 0. The “Morningglory plant response rating” value (morningglory; [5]) was 0, the “Morningglory plant response rating” value (morningglory; [6]) was 0 and the “Morningglory plant response rating” value (morningglory; [7]) was 4. For the same compound, the “Morningglory plant response rating” value (morningglory; [8]) was 8, the “Redroot pigweed plant response rating” value (pigweed; [1]) was 0 and the “Plant response rating, Redroot pigweed” value (pigweed; [3]) was 2. The “Plant response rating, Redroot pigweed” value (pigweed; [4]) was 1, the “Redroot pigweed plant response rating” value (pigweed; [5]) was 6 and the “Redroot pigweed plant response rating” value (pigweed; [7]) was 9. For the same compound, the “Redroot pigweed plant response rating” value (pigweed; [8]) was 0, the “Rape plant response rating” value (rape; [1]) was 0 and the “Plant response rating, Rape” value (rape; [3]) was 0. The “Plant response rating, Rape” value (rape; [4]) was 0, the “Rape plant response rating” value (rape; [5]) was 0 and the “Rape plant response rating” value (rape; [6]) was 0. The “Rape plant response rating” value (rape; [7]) was 2, the “Rape plant response rating” value (rape; [8]) was 0 and the “Soybean plant response rating” value (soybean; [1]) was 4. The “Plant response rating, Soybean” value (soybean; [3]) was 5, the “Plant response rating, Soybean” value (soybean; [4]) was 0 and the “Soybean plant response rating” value (soybean; [5]) was 0. For the same compound, the “Soybean plant response rating” value (soybean; [6]) was 0, the “Soybean plant response rating” value (soybean; [7]) was 0 and the “Soybean plant response rating” value (soybean; [8]) was 2. For the same compound, the “Sugarbeets plant response rating” value (sugar beet; [1]) was 0, the “Plant response rating, Sugarbeets” value (sugar beet; [3]) was 0 and the “Plant response rating, Sugarbeets” value (sugar beet; [4]) was 0. For the same compound, the “Sugarbeets plant response rating” value (sugar beet; [5]) was 0, the “Sugarbeets plant response rating” value (sugar beet; [6]) was 0 and the “Sugarbeets plant response rating” value (sugar beet; [7]) was 2. The “Sugarbeets plant response rating” value (sugar beet; [8]) was 0, the “Velvetleaf plant response rating” value (velvetleaf; [1]) was 0 and the “Plant response rating, Velvetleaf” value (velvetleaf; [3]) was 4. For the same compound, the “Plant response rating, Velvetleaf” value (velvetleaf; [4]) was 0, the “Velvetleaf plant response rating” value (velvetleaf; [5]) was 0 and the “Velvetleaf plant response rating” value (velvetleaf; [6]) was 0. For the same compound, the “Velvetleaf plant response rating” value (velvetleaf; [7]) was 3, the “Velvetleaf plant response rating” value (velvetleaf; [8]) was 0 and the “Wheat plant response rating” value (wheat; [1]) was 0. For the same compound, the “Plant response rating, Wheat” value (wheat; [3]) was 5, the “Plant response rating, Wheat” value (wheat; [4]) was 0 and the “Wheat plant response rating” value (wheat; [5]) was 2. The “Wheat plant response rating” value (wheat; [6]) was 3, the “Wheat plant response rating” value (wheat; [7]) was 5 and the “Wheat plant response rating” value (wheat; [8]) was 0. For the same compound, the “Wild oats plant response rating” value (wild oat; [1]) was 0, the “Plant response rating, Wild oats” value (wild oat; [3]) was 4 and the “Plant response rating, Wild oats” value (wild oat; [4]) was 2. The “Wild oats plant response rating” value (wild oat; [5]) was 5, the “Wild oats plant response rating” value (wild oat; [6]) was 6 and the “Wild oats plant response rating” value (wild oat; [7]) was 8. The “Wild oats plant response rating” value (wild oat; [8]) was 0, the “Nutsedge plant response rating” value (purple nutsedge; [1]) was 0 and the “Plant response rating, Nutsedge” value (purple nutsedge; [3]) was 0. For the same compound, the “Plant response rating, Nutsedge” value (purple nutsedge; [4]) was 0, the “Nutsedge plant response rating” value (purple nutsedge; [5]) was 0 and the “Nutsedge plant response rating” value (purple nutsedge; [6]) was 0. The “Nutsedge plant response rating” value (purple nutsedge; [7]) was 0, the “Nutsedge plant response rating” value (purple nutsedge; [8]) was 0 and the “Plant response rating, Rice (0 to 10 scale, 0 is no effect, 10 is complete control)” value (rice; [9]) was 0. The “Rice plant response rating (0 to 10 scale, 0 is no effect, 10 is complete control)” value (rice; [10]) was 0, the “Rice plant response rating” value (rice; [11]) was 0 and the “Plant response rating, S. Flatsedge (0 to 10 scale, 0 is no effect, 10 is complete control)” value (smallflower flatsedge; [9]) was 0. For the same compound, the “S. Flatsedge plant response rating (0 to 10 scale, 0 is no effect, 10 is complete control)” value (smallflower flatsedge; [10]) was 0, the “S. Flatsedge plant response rating” value (smallflower flatsedge; [11]) was 0 and the “Plant response rating, Ducksalad (0 to 10 scale, 0 is no effect, 10 is complete control)” value (duck salad; [9]) was 0. For the same compound, the “Ducksalad plant response rating (0 to 10 scale, 0 is no effect, 10 is complete control)” value (duck salad; [10]) was 0, the “Ducksalad plant response rating” value (duck salad; [11]) was 0 and the “Plant response rating, Barnyardgrass (0 to 10 scale, 0 is no effect, 10 is complete control)” value (bamyardgrass; [9]) was 0. The “Barnyardgrass plant response rating (0 to 10 scale, 0 is no effect, 10 is complete control)” value (bamyardgrass; [10]) was 0 and the “Barnyardgrass plant response rating” value (bamyardgrass; [11]) was 0.
